In US20260374739A1, “SMALL MOLECULAR WEIGHT CHEMICAL COMPOUND TO ANTAGONIZE EPH-EPHRIN TETRAMERIZATION AND INHIBIT BIDIRECTIONAL SIGNALING” (THE BOARD OF REGENTS OF THE UNIVERSITY OF TEXAS SYSTEM, priority 2022, published 2026):
“And” between values parts separate entries of the source, which are not always exact repeats. Equal entries are not always repeated. “Also recorded” adds a separate entry of the source. Where two headings read alike, the source gives them in different places. Marks after values point to notes of the source that are not given here.

Legend:
[1] = target: T1, EphrinB2-EphB2 (Homo sapiens, UniProt P29323); assay: Octet 80 sec association/500 sec dissociation, immobilized human EphrinB2-Fc binding to soluble human EphB2-His; settings: for inhibition at 3.2 µM: EphB2, 25 nM EphB2, 3.2 μM compound, A20-I as max control, 0* = less than 0, no inhibition; for EphB2 Inhibition Percent, Inhibition of Association ONLY: at 3.2 μM and 80 seconds; for EphB2 Inhibition Percent, Inhibition of Association ONLY / EphB2 Inhibition Percent, Inhibition of Association-Dissociation: immobilized human EphrinB2, 25 nM soluble human EphB2; for EphB2 Inhibition Percent, Inhibition of Association-Dissociation: at 3.2 μM and 580 seconds
T1 construct: soluble human EphB1-His, EphB2-His, and EphB4-His ectodomains; commercially available human EphrinB1-Fc (EB1), EphrinB2-Fc (EB2), and EphrinB3-Fc (EB3) ectodomain proteins; purchased
T1 sequence (P29323 19-543 limits assumed): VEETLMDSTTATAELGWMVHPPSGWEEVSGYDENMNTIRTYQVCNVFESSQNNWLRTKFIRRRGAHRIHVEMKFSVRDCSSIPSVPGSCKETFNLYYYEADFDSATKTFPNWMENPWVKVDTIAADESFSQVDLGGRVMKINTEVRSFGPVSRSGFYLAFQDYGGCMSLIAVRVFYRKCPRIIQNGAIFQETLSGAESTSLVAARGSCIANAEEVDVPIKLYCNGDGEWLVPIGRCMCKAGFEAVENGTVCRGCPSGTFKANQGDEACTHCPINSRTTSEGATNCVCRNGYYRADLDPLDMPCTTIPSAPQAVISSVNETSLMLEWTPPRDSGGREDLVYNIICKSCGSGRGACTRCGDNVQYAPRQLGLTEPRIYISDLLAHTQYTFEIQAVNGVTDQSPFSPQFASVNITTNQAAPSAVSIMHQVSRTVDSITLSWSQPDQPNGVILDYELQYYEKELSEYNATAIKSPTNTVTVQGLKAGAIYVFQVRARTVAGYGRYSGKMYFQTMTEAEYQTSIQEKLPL
Summary of the method: (§1)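 EphrinB2-Fc captured on AHC biosensors, then soluble His-tagged EphB ectodomain (25 nM for % inhibition runs) associated 80 s and dissociated 500 s in PBS, 0.05% Tween-20, 1% DMSO ± compound. Compounds tested at 0.1–3.2 μM with a 10 μM max standard; IC50 from AUC of full traces or at 75 s and 135 s.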

[2] = target: T2, EphrinB2-EphB4 (Homo sapiens, UniProt P54760); assay: Octet 80 sec association/500 sec dissociation, immobilized human EphrinB2-Fc binding to soluble human EphB4-His; settings: for inhibition at 3.2 µM: EphB4, 25 nM EphB4, 3.2 μM compound, A20-I as max control, 0* = less than 0, no inhibition; for EphB4 Inhibition Percent, Inhibition of Association ONLY: at 3.2 μM and 80 seconds; for EphB4 Inhibition Percent, Inhibition of Association ONLY / EphB4 Inhibition Percent, Inhibition of Association-Dissociation: immobilized human EphrinB2, 25 nM soluble human EphB4; for EphB4 Inhibition Percent, Inhibition of Association-Dissociation: at 3.2 μM and 580 seconds
T2 construct: soluble human EphB1-His, EphB2-His, and EphB4-His ectodomains; commercially available human EphrinB1-Fc (EB1), EphrinB2-Fc (EB2), and EphrinB3-Fc (EB3) ectodomain proteins; purchased
T2 sequence (P54760 16-539 limits assumed): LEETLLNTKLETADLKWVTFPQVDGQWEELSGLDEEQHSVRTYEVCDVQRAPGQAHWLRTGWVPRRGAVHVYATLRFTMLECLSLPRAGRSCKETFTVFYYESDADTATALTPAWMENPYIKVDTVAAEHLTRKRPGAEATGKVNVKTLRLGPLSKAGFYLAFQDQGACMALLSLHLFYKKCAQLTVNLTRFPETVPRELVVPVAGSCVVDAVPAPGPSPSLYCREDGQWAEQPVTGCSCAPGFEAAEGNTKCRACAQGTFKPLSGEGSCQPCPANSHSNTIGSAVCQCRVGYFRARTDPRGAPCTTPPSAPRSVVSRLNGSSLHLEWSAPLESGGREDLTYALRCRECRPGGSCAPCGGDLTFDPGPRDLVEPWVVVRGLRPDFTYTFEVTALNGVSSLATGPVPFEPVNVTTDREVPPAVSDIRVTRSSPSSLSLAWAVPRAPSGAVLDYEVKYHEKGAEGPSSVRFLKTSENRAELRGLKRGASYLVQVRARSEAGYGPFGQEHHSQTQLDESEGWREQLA
Summary of the method: as §1

[3] = read-out: % Inhibition: Association + Dissociation (160 sec)
[4] = read-out: % Inhibition: Association ONLY (80 sec)

With `OCc1ccc2c(CN3CCOCC3)cc(Br)c(O)c2n1` [Compound 13, 7-bromo-2-(hydroxymethyl)-5-(morpholinomethyl)quinolin-8-ol] the inhibition at 3.2 µM [1, 3] was 68.4%, the inhibition at 3.2 µM [1, 4] was 50.5% and the inhibition at 3.2 µM [2, 3] was 7.6%. For the same compound, the inhibition at 3.2 µM [2, 4] was 0%.

Compound `COc1ccc2[nH]cc(C(=O)N3CCN(c4ccccc4OC)CC3)c2c1` [Compound 64, (5-methoxy-1H-indol-3-yl)(4-(2-methoxyphenyl)piperazin-1-yl)methanone] has an inhibition at 3.2 µM [1, 3] of 0%, an inhibition at 3.2 µM [1, 4] of 0% and an inhibition at 3.2 µM [2, 3] of 0%. The inhibition at 3.2 µM [2, 4] was 0%.

With `Oc1c(CN2CCCCC2)cc(Cl)c2cccnc12` [Compound 76, 5-chloro-7-(piperidin-1-ylmethyl)quinolin-8-ol, reference compound] the “EphB2 Inhibition Percent, Inhibition of Association ONLY” value [1] was 59.7% and 46.7%, the “EphB2 Inhibition Percent, Inhibition of Association-Dissociation” value [1] was 77.8% and 71.3% and the “EphB4 Inhibition Percent, Inhibition of Association ONLY” value [2] was 17.9% and 11.6%. The “EphB4 Inhibition Percent, Inhibition of Association-Dissociation” value [2] was 34.5% and 29.6%.

With `Oc1ccc(CN2CCN(c3ccc(Br)cc3)CC2)c2cccnc12` [Compound 26, 5-((4-(4-bromophenyl)piperazin-1-yl)methyl)quinolin-8-ol] the “EphB2 Inhibition Percent, Inhibition of Association ONLY” value [1] was 35.9%, the “EphB2 Inhibition Percent, Inhibition of Association-Dissociation” value [1] was 60.1% and the “selectivity among EphrinB2-EphB1/B2/B4” value ([2]; 3.2 μM, listed as QPB4) was “ability to selectively inhibit EphrinB2-EphB2 and EphrinB2-EphB1 interactions, while sparing the EphrinB2-EphB4 interaction; also recorded: less action towards EphB4 but high specificity for EphB1 and EphB2”. The “EphB4 Inhibition Percent, Inhibition of Association ONLY” value [2] was 0*% and the “EphB4 Inhibition Percent, Inhibition of Association-Dissociation” value [2] was 0*%.

With `Oc1c(Br)cc(CN2CCOCC2)c2cccnc12` [Compound 6, 4-((7-bromo-8-hydroxyquinolin-1-ium-5-yl)methyl)morpholin-4-ium chloride] the “EphB2 Inhibition Percent, Inhibition of Association ONLY” value [1] was 61.0%, the “EphB2 Inhibition Percent, Inhibition of Association-Dissociation” value [1] was 76.8% and the “EphB4 Inhibition Percent, Inhibition of Association ONLY” value [2] was 20.0%. For the same compound, the “EphB4 Inhibition Percent, Inhibition of Association-Dissociation” value [2] was 35.9%.

In the case of `Oc1ccc(CN2CCCCC2)c2cccnc12` [Compound 68, 5-(piperidin-1-ylmethyl)quinolin-8-ol, reference compound], the “EphB2 Inhibition Percent, Inhibition of Association ONLY” value [1] is reported as 54.9%, the “EphB2 Inhibition Percent, Inhibition of Association-Dissociation” value [1] is reported as 72.9% and the “EphB4 Inhibition Percent, Inhibition of Association ONLY” value [2] is reported as 0*%. The “EphB4 Inhibition Percent, Inhibition of Association-Dissociation” value [2] was 5.8%.
